Results reported in patent US9957289B2, “Compounds and methods for treating bacterial infections” (Washington University, priority 2013, dated 2018).

Each compound was assayed against T1, FimH (Escherichia coli, UniProt P08191) (assay: Hemagglutination inhibition (HAI) assay, guinea pig red blood cells). Conditions: concentration inhibiting >90% hemagglutination of guinea pig red blood cells.
T1 construct: endogenous in cells; host or cells: type 1 piliated uropathogenic E. coli (UPEC)
Type: cell-based, E. coli
Description: FIG. 15 depicts the hemagglutination assay (HA) used to assess the compounds' ability to block FimH mediated binding. The HAI titer quantitatively measure the effect of inhibitors on blocking the FimH-mediated hemagglutination (HA) of guinea pig red blood cell infected with E. coli.
In some embodiments, activity of the compound is measured using hemmagglutination titer of guinea pig red blood cells. Hemagglutination of guinea pig red blood cells by type1 piliated UPEC is dependent upon FimH mannose binding ability and serial dilutions allow a quantitative analysis.
Hemagglutination assays for mannose-sensitive agglutination of guinea pig red blood cells were performed as previously described.

T1 sequence (P08191 22-300): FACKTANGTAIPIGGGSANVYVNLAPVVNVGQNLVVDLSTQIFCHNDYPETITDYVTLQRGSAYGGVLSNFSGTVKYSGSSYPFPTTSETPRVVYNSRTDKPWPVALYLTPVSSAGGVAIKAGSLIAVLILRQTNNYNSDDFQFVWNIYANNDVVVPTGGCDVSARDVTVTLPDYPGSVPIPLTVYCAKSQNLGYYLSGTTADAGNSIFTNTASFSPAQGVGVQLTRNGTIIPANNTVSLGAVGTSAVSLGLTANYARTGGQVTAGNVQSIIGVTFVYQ

Going from `CNC(=O)c1cccc(-c2ccc([C@H](O)C3OC(CO)C(O)C(O)C3O)c(C)c2)c1` (single isomer, unassigned) [Example 18B] to `CNC(=O)c1cccc(-c2ccc(C[C@H]3O[C@@H](CO)[C@@H](O)[C@H](O)[C@H]3O)c(C)c2)c1` [Example 19, N-methyl-3-[3-methyl-4-[[(2R,3R,4R,5S,6S)-3,4,5-trihydroxy-6-(hydroxymethyl)tetrahydropyran-2-yl]methyl]phenyl]benzamide], the “HAI Titer EC>90” value falls from 6.000 µM to 2.000 µM (3-fold).

First: COC(=O)c1cccc(-c2ccc(O[C@H]3O[C@@H](CO)[C@@H](O)[C@H](O)[C@H]3O)c(C)c2)c1 [Example 1, methyl 3-[3-methyl-4-[(2R,3R,4S,5S,6S)-3,4,5-trihydroxy-6-(hydroxymethyl)tetrahydropyran-2-yl]oxy-phenyl]benzoate]
Second: Cc1cc(-c2cccc(C(=O)Nc3ccncc3)c2)ccc1O[C@H]1O[C@@H](CO)[C@@H](O)[C@H](O)[C@H]1O [Example 3, 3-[3-methyl-4-[(2R,3R,4S,5S,6S)-3,4,5-trihydroxy-6-(hydroxymethyl)tetrahydropyran-2-yl]oxy-phenyl]-N-(4-pyridyl)benzamide]
The “HAI Titer EC>90” value of the first is 1.9-fold higher: 0.12 µM for the first, 0.064 µM for the second.

Compared with `Cc1cc(-c2cccc(C(=O)Nc3cccnc3)c2)ccc1O[C@H]1O[C@@H](CO)[C@@H](O)[C@H](O)[C@H]1O` [Example 4, 3-[3-methyl-4-[(2R,3R,4S,5S,6S)-3,4,5-trihydroxy-6-(hydroxymethyl)tetrahydropyran-2-yl]oxy-phenyl]-N-(3-pyridyl)benzamide], `Cc1cc(-c2ccc3ccn(CC(=O)Nc4cccnc4)c(=O)c3c2)ccc1O[C@H]1O[C@@H](CO)[C@@H](O)[C@H](O)[C@H]1O` [Example 10, 2-[7-[3-methyl-4-[(2R,3R,4S,5S,6S)-3,4,5-trihydroxy-6-(hydroxymethyl)tetrahydropyran-2-yl]oxy-phenyl]-1-oxo-2-isoquinolyl]-N-(3-pyridyl)acetamide] is 32-fold lower in “HAI Titer EC>90” value: 0.032 µM for the first, 0.001 µM for the second.

`Cc1nnc(-c2ccc(-c3ccc(O[C@H]4O[C@@H](CO)[C@@H](O)[C@H](O)[C@H]4O)c(C)c3)cc2)o1` [Example 5, (2S,3S,4S,5R,6R)-2-(hydroxymethyl)-6-[2-methyl-4-[4-(5-methyl-1,3,4-oxadiazol-2-yl)phenyl]phenoxy]tetrahydropyran-3,4,5-triol] and `Cc1nnc(-c2cccc(-c3ccc(O[C@H]4O[C@@H](CO)[C@@H](O)[C@H](O)[C@H]4O)c(C)c3)c2)o1` [Example 6, (2S,3S,4S,5R,6R)-2-(hydroxymethyl)-6-[2-methyl-4-[3-(5-methyl-1,3,4-oxadiazol-2-yl)phenyl]phenoxy]tetrahydropyran-3,4,5-triol] are the same in “HAI Titer EC>90” value: 0.062 µM for the first, 0.062 µM for the second.

Going from `COC(=O)Cn1ccc2ccc(-c3ccc(O[C@H]4O[C@@H](CO)[C@@H](O)[C@H](O)[C@H]4O)c(C)c3)cc2c1=O` [Example 8, methyl 2-[7-[3-methyl-4-[(2R,3R,4S,5S,6S)-3,4,5-trihydroxy-6(hydroxymethyl)tetrahydropyran-2-yl]oxy-phenyl]-1-oxo-2-isoquinolyl]acetate] to `Cc1cc(-c2ccc3ccn(CC(=O)O)c(=O)c3c2)ccc1O[C@H]1O[C@@H](CO)[C@@H](O)[C@H](O)[C@H]1O` [Example 9, 2-[7-[3-methyl-4-[(2R,3R,4S,5S,6S)-3,4,5-trihydroxy-6-(hydroxymethyl)tetrahydropyran-2-yl]oxy-phenyl]-1-oxo-2-isoquinolyl]acetic acid], the “HAI Titer EC>90” value rises from 0.006 µM to 0.016 µM (2.7-fold).

Compared with `Cc1cc(-c2ccc3ccn(CC(=O)Nc4ccncc4)c(=O)c3c2)ccc1O[C@H]1O[C@@H](CO)[C@@H](O)[C@H](O)[C@H]1O` [Example 11, 2-[7-[3-methyl-4-[(2R,3R,4S,5S,6S)-3,4,5-trihydroxy-6-(hydroxymethyl)tetrahydropyran-2-yl]oxy-phenyl]-1-oxo-2-isoquinolyl]-N-(4-pyridyl)acetamide], `Cc1cc(-c2ccc3ccn(Cc4ccncc4)c(=O)c3c2)ccc1O[C@H]1O[C@@H](CO)[C@@H](O)[C@H](O)[C@H]1O` [Example 15, 7-[3-methyl-4-[(2R,3R,4S,5S,6S)-3,4,5-trihydroxy-6-(hydroxymethyl)tetrahydropyran-2-yl]oxy-phenyl]-2-(4-pyridylmethyl)isoquinolin-1-one] is 4-fold higher in “HAI Titer EC>90” value: 0.001 µM for the first, 0.004 µM for the second.

First: Cc1cc(-c2ccc3ccn(CC(=O)N4CCN(C)CC4)c(=O)c3c2)ccc1O[C@H]1O[C@@H](CO)[C@@H](O)[C@H](O)[C@H]1O [Example 12, 2-[2-(4-methylpiperazin-1-yl)-2-oxo-ethyl]-7-[3-methyl-4-[(2R,3R,4S,5S,6S)-3,4,5-trihydroxy-6-(hydroxymethyl)tetrahydropyran-2-yl]oxy-phenyl]isoquinolin-1-one]
Second: Cc1cc(-c2ccc3ccn(CCN(C)C)c(=O)c3c2)ccc1O[C@H]1O[C@@H](CO)[C@@H](O)[C@H](O)[C@H]1O [Example 14, 2-(2-dimethylaminoethyl)-7-[3-methyl-4-[(2R,3R,4S,5S,6S)-3,4,5-trihydroxy-6-(hydroxymethyl)tetrahydropyran-2-yl]oxy-phenyl]isoquinolin-1-one]
The “HAI Titer EC>90” value of the first is 1.5-fold lower: 0.008 µM for the first, 0.012 µM for the second.

Compared with `Cc1cc(-c2ccc3ccn(CC(=O)NCCN)c(=O)c3c2)ccc1OC1OC(CO)C(O)C(O)C1O` [Example 13, N-(2-aminoethyl)-2-[7-[3-methyl-4-[(2R,3R,4S,5S,6S)-3,4,5-trihydroy-6-(hydroxymethyl)tetrahydropyran-2-yl]oxy-phenyl]-1-oxo-2-isoquinolyl]acetamide], `Cc1cc(-c2ccc3ccn(Cc4cccnc4)c(=O)c3c2)ccc1O[C@H]1O[C@@H](CO)[C@@H](O)[C@H](O)[C@H]1O` [Example 16, 7-[3-methyl-4-[(2R,3R,4S,5S,6S)-3,4,5-trihydroxy-6-(hydroxymethyl)tetrahydropyran-2-yl]oxy-phenyl]-2-(3-pyridylmethyl)isoquinolin-1-one] is 2-fold lower in “HAI Titer EC>90” value: 0.016 µM for the first, 0.008 µM for the second.

In the case of `CNC(=O)c1sc(-c2ccc(O[C@H]3O[C@@H](CO)[C@@H](O)[C@H](O)[C@H]3O)c(C)c2)cc1NC(N)=O` [Example 17, N-methyl-5-[3-methyl-4-[(2R,3R,4S,5S,6S)-3,4,5-trihydroxy-6-(hydroxymethyl)tetrahydropyran-2-yl]oxy-phenyl]-3-ureido-thiophene-2-carboxamide], the “HAI Titer EC>90” value is reported as 0.024 µM.

Each compound was assayed on UTI89 (assay: Mouse model of acute UTI, bladder bacterial CFU after UTI89 infection). Conditions: mice, 25 mg/kg oral in 10% cyclodextrin 30 min prior to infecting with UTI89; 6 hpi.
Type: in vivo, Escherichia coli
Description: The efficacy of in vivo mannoside treatment was evaluated after orally dosing animals with 50 mg/kg of mannosides ZFH-4269 (FIG. 1A), ZFH-5254 (FIG. 1B) and ZFH-5240 (FIG. 1C) or DMSO or PBS 30 min prior to infecting with UTI89. At 6 hours post-infection (hpi) the bladders were removed and total bacterial CFUs were quantitated. […] Next, analogs of 254 were evaluated in the same mouse model of urinary tract infection. Animals were orally dosed with 25 mg/kg of mannosides ZFH-4269 (FIG. 2A), 1CJ68 (FIG. 2B) and 1CJ70 (FIG. 2C) in 10% cyclodextrin or 10% cyclodextrin 30 min prior to infecting with UT189.
The efficacy of in vivo mannoside treatment was evaluated after orally dosing animals with 25 mg/kg of mannosides ZFH269, Prodrug FIM-4269, ZFH-5254, and ZFH-5240 in 10% cyclodextrin or 10% cyclodextrin 30 min prior to infecting with UTI89. At 6 hours post-infection (hpi) the bladders were removed and total bacterial CFUs were quantitated. […] Next, several different prodrugs were evaluated in the same mouse model of urinary tract infection. Animals were orally dosed with 25 mg/kg of mannosides ZFH-4269, prodrug FIM-1233 (FIG. 8B), prodrug FIM-6123 (FIG. 8C) and prodrug 269 in 10% cyclodextrin or 10% cyclodextrin 30 min prior to infecting with UT189.
The FimH-mannose interaction was further investigated in an effort to develop potential ligand-based antagonists of UTIs. […] The non-reducing Man4 anchors into the mannose-binding pocket while the GlcNAc folds over Thr51 allowing specific interactions with a hydrophobic tyrosine gate. Heptyl mannoside mimics the GlcNAc tail of oligomannose-3 and extends it further to increase interactions outside the binding pocket resulting in high affinity binding (Kd=5 nM). Based on the high affinity of heptyl mannose for FimH, the ability of heptyl mannose to reduce bacterial infection in our mouse model of UTI was tested. First, biofilm formation as a surrogate for IBCs formed in the bladder was evaluated. […] Thus, UPEC strain UTI89 was incubated with heptyl mannose prior to inoculation into the bladders of mice.
Bacteria were grown under type 1 pili-inducing conditions (2×24 h at 37° C. statically in LB). The bacteria were harvested and resuspended to an OD600 of 0.5 in PBS. Eight-week-old C3H/HeN (Harlan) female mice were anesthetized by inhalation of isoflurane and infected via transurethral catheterization with […] of the bacterial suspension, resulting in 1-2×10^7 inoculum. At 6 hpi, mice were sacrificed by cervical dislocation under anesthesia and the bladders were immediately harvested and processed as described below. All animal studies using mice were approved by the Animal Studies Committee of Washington University (Animal Protocol Number 20100002).
Mannoside ZFH-2056 was administered either IP (5 mg/kg) or orally (100 mg/kg) 30 min prior to inoculation with UTI89. To enumerate the bacteria present, mice were sacrificed at 6 hpi and bladders were aseptically removed and homogenized in 1 ml PBS, serially diluted and plated onto LB agar plates. CFU was enumerated after 16 h of growth at 37° C.

For `CNC(=O)c1cccc(-c2ccc(OC3OC(COP(=O)(O)O)C(O)C(O)C3O)c(C)c2)c1` [Example 21, [(2S,3S,4S,5R,6R)-3,4,5-trihydroxy-6-[2-methyl-4-[3-(methylcarbamoyl)phenyl]phenoxy]tetrahydropyan-2-yl]methyl dihydrogen phosphate], the “total bacterial CFUs in the bladder” value was “drop in bacterial counts”.
With `CNC(=O)c1cccc(-c2ccc(O[C@H]3O[C@@H](COC(=O)CN(C)C)[C@@H](O)[C@H](O)[C@H]3O)c(C)c2)c1` [Example 22, [(2S,3S,4S,5R,6R)-3,4,5-trihydroxy-6-[2-methyl-4-[3-(methylcarbamoyl)phenyl]phenoxy]tetrahydropyran-2-yl]methyl 2-dimethylaminoacetate] the “total bacterial CFUs in the bladder” value was “drop in bacterial counts”.
